Assay results reported in patent US20250205385A1, “SILICONE MATERIAL, SILICONE TUBE, IMPLANT, PHARMACEUTICAL COMPOSITION, AND TEST METHOD FOR AMOUNT OF DRUG RELEASED” (SHENYANG XINGHUA PHARMACEUTICAL TECHNOLOGY CO., LTD, priority 2022, published 2025).
≈ marks a conversion by molar mass, not a printed value. Like-named read-outs stand apart in the source and are kept apart here.

Key:
[1] = Equilibrium solubility of gestodene bulk drug in water and normal saline, before and after micronization; assay type: physicochemical; details: thermodynamic from solid, shaken 72 hours
Experimental: The prepared implant needs to be implanted in the subcutaneous tissue of the human upper arm, where the pH is close to neutral. Therefore, the release medium can be either water or normal saline. A supersaturated solution of the gestodene bulk drug in water and normal saline, both before and after micronization, was prepared. The solution was placed in a shaker and shaken for 72 hours. After shaking, the mixture was taken out and centrifuged, and the supernatant was filtered. The equilibrium solubility of the gestodene bulk drug in water and normal saline, both before and after micronization, was determined using high performance liquid chromatography. Based on the results, the appropriate release medium was selected.
In vitro release experiments were conducted on implants with different silicone tube wall thicknesses, medicinal core side areas, and drug particle sizes. Based on the in vitro release results, long-acting contraceptive implants with a daily drug release of 10-30 μg were prepared. The prepared implant was implanted in the subcutaneous tissue of the human upper arm, where the pH was close to neutral, allowing the release medium to be chosen between water and normal saline. A supersaturated solution of the gestodene bulk drug in water and normal saline, both before and after micronization, was prepared. The solution was placed in a shaker and shaken for 72 hours. After shaking, the mixture was taken out and centrifuged, and the supernatant was filtered. The equilibrium solubility of the gestodene bulk drug in water and normal saline, both before and after micronization, was determined using high performance liquid chromatography. Based on the results, the appropriate release medium was selected. Water was selected as the release medium for the in vitro release experiments. In the following experiments to investigate the in vitro release amount, the implant from Example 27 was subjected to depowdering pre-treatment, which involved adding 50 mL of anhydrous ethanol to a conical flask containing the implant, followed by ultrasonication for 1 minute. This process was repeated three times, after which 100 mL of distilled water was added and left overnight. The next day, the soaking solution was discarded, and the implant was placed in a shaker for in vitro release.

[2] = cited from earlier work
[3] = cited from earlier work; for Solubility: in water

| solubility at 72 h ([1]; normal saline, saline or isotonic, drug particle size 2.81 μm (micronized), normal saline (NS)) | solubility at 72 h ([1]; normal saline, saline or isotonic, drug particle size 80.30 μm (unmicronized), normal saline (NS)) | solubility at 72 h ([1]; water or normal saline, drug particle size 2.81 μm (micronized), water) | solubility at 72 h ([1]; water or normal saline, drug particle size 80.30 μm (unmicronized), water) | Structure (SMILES) | bioavailability ([2]; background statement) | daily release sufficient to produce a contraceptive effect ([2]; humans, review of the literature) | Solubility ([3]; bulk drug) | LogP ([3]; bulk drug) | solubility in water [3] | pKa ([3]; bulk drug) | pKa [3] |
| --- | --- | --- | --- | --- | --- | --- | --- | --- | --- | --- | --- |
| 2.71 ± 0.24 µg/mL (≈ 8.73 µM) | 5.3 ± 0.58 µg/mL (≈ 17.1 µM) | 4.11 ± 0.52 µg/mL (≈ 13.2 µM) | 5.64 ± 0.62 µg/mL (≈ 18.2 µM) | C#C[C@]1(O)C=C[C@H]2[C@@H]3CCC4=CC(=O)CC[C@@H]4[C@H]3CC[C@@]21CC [gestodene] | ~100% | 10 to 20 µg |  |  |  |  |  |
|  |  |  |  | CC(C)Cc1ccc(C(C)C(=O)O)cc1 (stereo not shown) [ibuprofen] |  |  | 60 µg/mL (≈ 291 µM) | 3.72 | 60 µg/mL (≈ 291 µM) |  |  |
|  |  |  |  | Cc1cnc(NC(=O)C2=C(O)c3ccccc3S(=O)(=O)N2C)s1 [meloxicam] |  |  | 3.4 µg/mL (≈ 9.68 µM) | 3.35 | 3.4 µg/mL (≈ 9.68 µM) | 4 | 4 |
|  |  |  |  | Cc1nc2n(c(=O)c1CCN1CCC(c3noc4cc(F)ccc34)CC1)CCCC2O (stereo not shown) [paliperidone] |  |  |  | 3.02 |  | 7.72 | 7.72 |
|  |  |  |  | O=c1c(-c2ccc(O)cc2)coc2c([C@@H]3O[C@H](CO)[C@@H](O)[C@H](O)[C@H]3O)c(O)ccc12 [puerarin] |  |  | 4000 µg/mL (≈ 9610 µM) | −0.67 | 4000 µg/mL (≈ 9610 µM) | 6.45 | 6.45 |
